# From patent US8846873B2, “Antibodies directed to GPNMB and uses thereof” (Celldex Therapeutics, Inc., priority 2004, dated 2014)
# “Also recorded” adds a separate entry of the source.
# What was measured:
# [1] = tested on: TK-10 cells; experiment: Apoptosis analysis (Annexin V-FITC / propidium iodide); type: cell-based, human; details: TK-10, 48 hour
# Experimental: (§1) Briefly, cells were pulsed at the indicated times with 30 μM of bromodeoxyuridine (BrdU, Sigma) for 30 min, harvested, fixed and permeabilized in methanol. Nascent DNA synthesis was detected by anti-bromodeoxyuridine-FITC (BD Biosciences, San Jose, Calif.) staining. Total DNA content was detected using propidium iodide (PI, Sigma). For apoptosis analysis, cells were treated as above and labeled with Annexin V-FITC followed by propidium iodide exclusion using the Annexin V-FITC Apoptosis Detection kit I (BD PharMingen, San Diego, Calif.) according to the manufacturer's protocols. Flow cytometry (as described in the previous Example) was used to assay both cell cycle and apoptosis studies.
# (§2) To investigate this possibility, analysis of apoptosis using Annexin-V surface binding and loss of propidium iodide (PI) exclusion was performed.
# [2] = tested on: SK-Mel-2 cells; experiment: as above; type: cell-based, human; details: for % AnnV+/PI+ UR / % AnnV+/PI− LR / % AnnV−/PI+ UL: SK-Mel-2, 48 hour
# Experimental: as §1, §2
# [3] = tested on: SK-MEL-2 melanoma xenografts; experiment: Human SK-MEL-2 melanoma xenograft in athymic mice; type: in vivo
# Experimental: Test Animals: Five- to 6-week old athymic mice (CD-1 nu/nu females), used for human tumor xenografts, were obtained from Harlan Laboratories (Indianapolis, Ind.). Animals were housed in specific pathogen-free conditions, according to the guidelines of the Association for Assessment and Accreditation of Laboratory Animal Care International (AAALAC International). Test animals were provided pelleted food and water ad libitum and kept in a room with conditioned ventilation (HVAC), temperature (22°±2° C.), relative humidity (55%±15%), and photoperiod (12 hr). All studies were carried out with approved institutional animal care and use protocols.
# Human Melanoma Xenograft Models. The tumor inhibitory activity of the CR011-MMAE immunoconjugate was measured in an anti-tumor xenograft model using athymic mice, according to published methods (see Geran et al., Cancer Chemother. Rep. 3:1-104 (1972)). […] When tumors became established (10-20 days), the animals were pair-matched into groups (n=6 mice/group), and treatment was administered by intravenous injection (tail vein).
# The SK-MEL-2 human melanoma (ATCC #HTB-68) was derived from a metastatic site (skin of thigh) of a person with malignant melanoma, and the SK-MEL-5 human melanoma (ATCC #HTB-70) was derived from a metastatic site (axillary lymph node) of a person with malignant melanoma (see Fogh et al., J. Natl. Cancer Inst. 59: 221-226 (1977)). Both cell lines were obtained from the American Type Culture Collection.
# The effects of treatment were monitored by repetitive tumor measurements across 2 diameters with Vernier calipers; tumor size (in mg) was calculated using a standard formula, (W^2×L)/2, assuming a specific gravity of 1.0. Tumor size and body weights were assessed twice weekly. Mice were examined daily, however, and moribund animals were humanely euthanized if clinical indications of excessive pain or distress were noted (i.e., prostration, hunched posture, paralysis/paresis, distended abdomen, ulcerations, abscesses, seizures, and/or hemorrhages). Animals with tumors exceeding 2,000 mg were removed from the study and euthanized humanely.
# No apparent or statistically significant anti-tumor effects were observed. […] In preliminary studies, tumor regression was complete and was not followed by regrowth of the tumor despite lengthy observation periods (up to 200 days).
# [4] = tested on: KG-1 (acute myelogenous leukemia); experiment: Clonogenic assay with 1.15.1-AE (methylcellulose); type: cell-based
# Experimental: (§3) Lymphoma or leukemia cell lines were mixed with methylcellulose base media (R&D Systems, USA) and in various concentrations of unconjugated and Auristatin E-conjugated 1.15.1 antibody before plating onto 6-well tissue culture plates (Becton Dickinson, Franklin Lakes, N.J., USA). […] Plates were incubated at 37° C. and examined daily. On days 14-18, colonies on the plates were counted.
# [5] = tested on: Karpas 299 (ALCL); experiment: Clonogenic assay with 1.15.1-AE (methylcellulose); type: cell-based
# Experimental: as §3
# [6] = tested on: THP-1 (acute monocytic leukemia); experiment: Clonogenic assay with 1.15.1-AE (methylcellulose); type: cell-based
# Experimental: as §3
# [7] = tested on: SU-DHL-1 (ALCL); experiment: Clonogenic assay with 1.15.1-AE (methylcellulose); type: cell-based
# Experimental: as §3
# [8] = tested on: Jurkat (acute T-cell leukemia); experiment: Clonogenic assay with 1.15.1-AE (methylcellulose); type: cell-based
# Experimental: as §3
# [9] = tested on: UACC-257; experiment: Clonogenic assay with 1.15.1-AE; type: cell-based, human
# Experimental: (§4) Melanoma cell lines were plated onto flat bottom 96-well tissue culture plates (Becton Dickinson, Franklin Lakes, N.J., USA). On day 2 or when cells reach ˜25% confluency, various concentrations of unconjugated and Auristatin E-conjugated 1.15.1 were added to cells. MAb 2.6.2-AE was also used as a conjugated isotype control in this study. On day 5, the cells were trypsinized, transferred to 6-well tissue culture plates and incubated at 37° C. Plates were examined daily. On days 8-10, all plates were Giemsa stained and colonies on the plates were counted.
# [10] = tested on: M14; experiment: Clonogenic assay with 1.15.1-AE; type: cell-based, human
# Experimental: as §4
# [11] = tested on: HT144; experiment: Clonogenic assay with 1.15.1-AE; type: cell-based, human
# Experimental: as §4
# [12] = tested on: UACC-62; experiment: Clonogenic assay with 1.15.1-AE; type: cell-based, human
# Experimental: as §4
# [13] = tested on: WM-266-4; experiment: Clonogenic assay with 1.15.1-AE; type: cell-based, human
# Experimental: as §4
# [14] = tested on: A2058; experiment: Clonogenic assay with 1.15.1-AE; type: cell-based, human
# Experimental: as §4
# [15] = tested on: MEWO; experiment: Clonogenic assay with 1.15.1-AE; type: cell-based, human
# Experimental: as §4
# [16] = tested on: LOXIMVI; experiment: Clonogenic assay with 1.15.1-AE; type: cell-based, human
# Experimental: as §4
# [17] = tested on: SK-Mel 2; experiment: Clonogenic assay with 1.15.1-AE; type: cell-based, human
# Experimental: as §4
# [18] = tested on: RPMI-7951; experiment: Clonogenic assay with 1.15.1-AE; type: cell-based, human
# Experimental: as §4
substance,measurement,setting,value
CR011-vcMMAE: anti-GPNMB antibody 1.15.1 coupled to monomethylauristatin E via protease-sensitive valine-citrulline linker,% AnnV+/PI+ UR,[1]; 100 ng/mL,0.57%
same,% AnnV+/PI− LR,[1]; 100 ng/mL,1.00%
same,% AnnV−/PI+ UL,[1]; 100 ng/mL,0.71%
same,% AnnV+/PI+ UR,[1]; 1000 ng/mL,0.83%
same,% AnnV+/PI− LR,[1]; 1000 ng/mL,0.56%
same,% AnnV−/PI+ UL,[1]; 1000 ng/mL,0.86%
same,increase in mono-stained (Annexin-V+/PI−) cells,"[2]; 1000 ng/mL, 48 hr",11%
same,% AnnV+/PI+ UR,[2]; 100 ng/mL,0.40%
same,% AnnV+/PI− LR,[2]; 100 ng/mL,9.37%
same,% AnnV−/PI+ UL,[2]; 100 ng/mL,0.30%
same,% AnnV+/PI+ UR,[2]; 1000 ng/mL,2.02%
same,% AnnV+/PI− LR,[2]; 1000 ng/mL,13.83%
same,% AnnV−/PI+ UL,[2]; 1000 ng/mL,2.08%
same,complete regressors,"[3]; 2 mg/kg cumulative dose, all dosing intervals",13%
same,proportions of complete regressions (animals),"[3]; 8 mg/kg cumulative dose, 5 groups of 6 animals",28/30
same,complete regressions,"[3]; 8 mg/kg cumulative dose, all dosing intervals",93%
same,tumor response,"[3]; CR011-ONC-1, CR011-vcMMAE 5 mg/kg/treatment i.v. q4d x4, components at doses identical to those in the immunoconjugate",Tumor growth inhibition and complete regression; also recorded: no discernible tumor was detected in all 6 of the test animals
same,abnormal treatment effects on gross examination,[3]; Study N-386,no abnormal treatment effects
same,time after treatment commenced to significant treatment effects,"[3]; Study N-386, 20, 10, 5 or 2.5 mg/kg i.v. q4d x4, P≦0.014",4 days
same,anti-tumor effect,"[3]; Study N-386, i.v., CR011-vcMMAE 20, 10, 5 or 2.5 mg/kg q4d x4, vinblastine […] q4d x4",tumors rapidly diminished in size for the majority of the test animals
same,effects of treatment on body weight or weight gain,"[3]; Study N-386, twice weekly body weight",no observable or statistically significant effects
same,complete regressions,"[3]; cumulative dose of 32 mg/kg, all dosing intervals",100%
same,schedule dependency of anti-tumor effects,"[3]; dosing intervals 0, 1, 4, 8, 16 days",not schedule-dependent
same,re-growth of tumors that regressed completely,[3]; observation period >200 days,did not re-grow
same,Clonogenic Assay with 1.15.1-AE IC50,[4],No growth
same,Clonogenic Assay with 1.15.1-AE IC50,[5],Inconclusive
same,Clonogenic Assay with 1.15.1-AE IC50,[6],0.207 µg/mL
same,IC50,[6],1.4 nM
same,Clonogenic Assay with 1.15.1-AE IC50,[7],No effect
same,Clonogenic Assay with 1.15.1-AE IC50,[8],No effect
same,Clonogenic Assay with 1.15.1-AE IC50,[9],0.825 µg/mL
same,IC50,[9],5.5 nM
same,Clonogenic Assay with 1.15.1-AE IC50,[10],Inconclusive
same,Clonogenic Assay with 1.15.1-AE IC50,[11],Inconclusive
same,Clonogenic Assay with 1.15.1-AE IC50,[12],0.697 µg/mL
same,IC50,[12],4.3 nM
same,Clonogenic Assay with 1.15.1-AE IC50,[13],0.345 µg/mL
same,IC50,[13],2.3 nM
same,Clonogenic Assay with 1.15.1-AE IC50,[14],No effect
same,Clonogenic Assay with 1.15.1-AE IC50,[15],Inconclusive
same,Clonogenic Assay with 1.15.1-AE IC50,[16],No effect
same,Clonogenic Assay with 1.15.1-AE IC50,[17],0.111 µg/mL
same,IC50,[17],0.75 nM
same,Clonogenic Assay with 1.15.1-AE IC50,[18],0.972 µg/mL
same,IC50,[18],6 nM
